Measured values taken from patent US11357770B2, “Method of treating immunoglobulin light chain amyloidosis” (ALTERITY THERAPEUTICS LIMITED, priority 2016, dated 2022).
Entries after “also recorded” stand apart in the source; their conditions may differ.

Experiments:
C. elegans [1] = assay: C. elegans pharyngeal pumping rate (LC-induced pharyngeal dysfunction); conditions: for ROS generation and pumping dysfunction caused by cardiotoxic LC: 2 nM 1033, 50 μM TETRA or 5 mM NAC with 100 μg/mL LC
Experimental: Worms were fed for 2 h with 100 μg/mL H7-BJ in the absence or presence of 0-25 nM 1033. Control worms received vehicle alone (dotted line). Each value is the mean±SE, n=30. […] (B) Images obtained from the overlay of a contrast phase and MitoSOX fluorescence (arrows). Scale bar 50 μm. (C) The effects of cardiotoxic LC, 1033, cardotoxic LC+1033, H2O2 and H2O2+1033 on pharyngeal function. (D) The effects of Chelex® and EDTA on LC induced pharyngeal dysfunction.
MM2-BJ (Myeloma) and H7-BJ (Cardiotoxic LC) and in 5 mM PBS, pH 7.4, were administered to worms (100 worms/100 μL) at 100 μg/mL alone or with 50 μM TETRA or 5 mM NAC. Control worms received vehicle alone (Vehicle). After incubation for 2 h in the absence of OP50 E. coli, worms were plated on NGM plates seeded with bacteria.
Bristol N2 strain, transgenic CL2070 dvIs70 Is[hsp-16.2::gfp; rol-6(su1006)], CF1553 muls84 [(pAD76) sod-3p::GFP+rol-6] and TJ356, zls356Is[daf-16::daf-16-gfp; rol-6] were obtained from the Caenorhabditis elegans Genetic Center (CGC, University of Minnesota, USA) and propagated at 20° C. on solid Nematode Growth Medium (NGM) seeded with E. coli OP50 (from CGC) for food. The effect of LC on pharyngeal behaviour was investigated (Diomede et al. 2014). Briefly, ancestral N2 and transgenic CL2070, TJ356 and CF1553 worms were incubated with 100 μg/mL LC listed in Table 1A (100 worms/100 μL) in 5 mM PBS, pH 7.4. Control worms were incubated with 5 mM PBS, pH 7.4 (Vehicle) only. After 2 h of incubation on orbital shaking, worms were transferred onto NGM plates seeded with OP50 E. coli. The pharyngeal pumping rate, measured by counting the number of times the terminal bulb of the pharynx contracted over a 1-minute interval, was scored 20 h later. Experiments were also performed by feeding worms for 2 h with 100 μg/mL of H6-BJ, H7-BJ, H18-BJ, MM2-BJ, MM4-BJ or MM7-BJ alone or with 125 μM copper (as CuSO4).
The experimental conditions of Example 4 were repeated with cardiotoxic LC H7-BJ with or without 1033, Chelex® resin or EDTA as well as 1033, H2O2 and H2O2 together with 1033.

DAF-16 = assay: DAF-16::GFP nuclear translocation in TJ356 nematodes; type: in vivo, Caenorhabditis elegans; conditions: 100 μg/mL H7-BJ 2 h with 2 nM 1033, 50 μM TETRA or 5 mM NAC
Experimental: (A) Image of DAF-16::GFP expression in control vehicle-fed and (B) cardiotoxic LC-fed worms (100 μg/mL H7-BJ for 2 h). (C-D) The subcellular distribution of DAF-16 expression in worms fed 2 h: vehicle, 100 μg/mL H7-BJ with or without 2 nM 1033, 50 μM tetracycline (TETRA) or 5 mM N-acetyl-cysteine (NAC). According to DAF-16 localization worms were divided into two phenotypes including “cytosolic” and “nuclear”. The percentage of DAF-16 localization in respect to vehicle fed worms was calculated based on 3 experiments, N=100. Mean±SE. **p<0.01 vs. vehicle, ºp<0.05 and ººp<0.01 vs. cardiotoxic LC, one-way ANOVA and Bonferroni's post hoc test. (E/F) Transgenic worms were fed with 1 mM H2O2 for 30 minutes as a positive control. DAF-16::GFP distribution (E) and HSP-16.2 and SOD-3 expression visualized by GFP-fluorescence (F).
(§1) DAF-16::green fluorescent protein (GFP) nuclear translocation was evaluated in TJ356 nematodes. Pharyngeal expression of HSP-16.2::GFP and SOD-3::GFP was determined in CL2070 and CF1553 worms, respectively. […] Organisms were scored as positive for nuclear localization when green foci were observed throughout the entire body from head to tail and as cytosolic when DAF-16::GFP was diffuse. The number of worms with each level of translocation were counted (at least 100 worms/condition). […] Average pixel intensity values were calculated by sampling images of different animals. […]

H7-BJ cardiotoxic LC = assay: Amplex Red H2O2 assay; type: biochemical, human; conditions: 100 μg/mL H7-BJ incubated with 2 nM 1033, room temperature
Experimental: H7-BJ and MM2-BJ proteins (100 μg/mL) in 10 mM sodium phosphate buffer (PB), pH 7.4, were incubated at room temperature in the presence or absence of 50 μM Chelex® resin or 2 nM 5,7-dichloro-8-hydroxy-2-(dimethylaminomethyl)quinoline (1033). Different times after incubation (0-2 h), 2 μL of solutions were put into a 96-well black plate, diluted 1:100 (vol/vol) with 10 mM PBS, pH 7.4, and the amount of H2O2 generated was determined by using the Amplex Red assay kit (Molecular probes, Life Technologies). To this end, 50 μL working solution of 100 μM Amplex Red and 200 mU/mL horseradish peroxidase in 10 mM PB, pH 7.4, was added to each well. The plate was shaken and incubated at room temperature for 30 min, protected from light. The fluorescence was read on a Tecan Infinite M200 microplate reader (Tecan, Austria) at excitation wavelength of 563 nm and emission wavelength of 587 nm. Averages and standard deviations were converted to H2O2 concentrations.

C. elegans [2] = assay: Endogenous metal levels (Cu, Zn, Fe) in C. elegans; type: in vivo, Caenorhabditis elegans; conditions: 100 μg/mL H7-BJ + 2 nM 1033
Experimental: FIG. 3 provides graphical representations of endogenous metal levels and the effects of added copper on C. elegans pharyngeal function. Worms fed with 100 μg/mL MM2-BJ (myeloma), 100 μg/mL cardiotoxic LC H7-BJ, cardiotoxic LC+ 2 nM 1033, or metal free water (vehicle) were analysed for the amount of endogenous Cu (A), Zn and Fe (B).

C. elegans N2 worms = assay: C. elegans life span experiments; type: in vivo, Caenorhabditis elegans
Experimental: N2 worms (100 worms/100 μL), at L3 larval stage, were fed for 2 h 100 μg/mL of H7-BJ alone or with 2 nM 1033. Worms were then transferred onto fresh NGM plates seeded with E. coli in the presence of the same drug concentration. Control worms were exposed, under the same conditions, to vehicle alone. After 20 h nematodes were transferred to fresh NGM plates seeded with bacteria and the number of live worms was scored (considered as day 0). To avoid overlapping generations, the worms were then transferred every day, in the absence of fluorodeoxyuridine, until they stopped laying eggs. To test the effect of repeated administration of 1033, worms were fed for 2 h 100 μg/mL of H7-BJ and 2 nM 1033 and then transferred onto fresh NGM plates seeded with E. coli in the presence of the same drug concentration. Then nematodes were transferred every day, in a new NGM plate in the presence of freshly dissolved 2 nM 1033. The number of live worms was determined for each consecutive day until all worms were dead.

HSP-16.2 = assay: Pharyngeal expression of HSP-16.2::GFP in CL2070 worms; type: in vivo, Caenorhabditis elegans; conditions: 100 μg/mL H7-BJ + 2 nM 1033, CL2070 worms
Experimental: (§2) Transgenic worms were fed for 2 h with: Vehicle (i, 5 mM PBS, pH 7.4) 100 μg/mL MM2-BJ (ii, Myeloma), 100 μg/mL H7-BJ (iii, Cardiotoxic LC), or 2 nM 1033 (iv, Cardiotoxic LC+ 1033). (A) Images of the HSP-16.2 expression as overlays of GFP-fluorescence and light microscopy in CL2070 transgenic worms. Scale bar 50 μm. (C) Images of SOD-3 expression as GFP-fluorescence (arrows) in CF1553 transgenic worms. Scale bar 50 μm. Quantified GFP intensity in (B) CL2070 and (D) CF1553 worms in response to treatments. Fluorescence intensity in each group was calculated as mean grey value+SE based on 3 experiments, N=25. **p<0.01 vs. Vehicle and ºp<0.05 and ººp<0.01 vs. Cardiotoxic LC, one-way ANOVA and Bonferroni's post hoc test.
as §1, with “animals. Mean pixel intensity for each experimental group was calculated using Cell-F software (Olympus).” for “animals.”

SOD-3 = assay: Pharyngeal expression of SOD-3::GFP in CF1553 worms; type: in vivo, Caenorhabditis elegans; conditions: 100 μg/mL H7-BJ + 2 nM 1033, CF1553 worms
Experimental: as §2
as §1, with “animals. Mean pixel intensity for each experimental group was calculated using Cell-F software (Olympus).” for “animals.”

C. elegans [3] = assay: Pharyngeal function, drugs administered after damage by cardiotoxic LC; type: in vivo, Caenorhabditis elegans; conditions: H7-BJ 1.5 h
Experimental: Pharyngeal performance of worms fed 100 μg/mL H7-BJ (Cardiotoxic LC) for 1.5 h and then treated for 30 min with 20 µM tetracycline (TETRA), 0.5-2 nM 1033 alone or together with 20 μM TETRA. Control worms fed vehicle alone. **p<0.001, *p<0.005 vs. vehicle, ººp<0.001 vs. Cardiotoxic LC, one-way ANOVA and Bonferroni's post hoc test. §§ p<0.01 significant interaction vs. worms fed Cardiotoxic LC+ 0.5 nM 1033, two-ways ANOVA and Bonferroni's post hoc test.
To reflect circumstances most likely encountered in the clinic drugs were administered to worms when the pharynx was already damaged by cardiotoxic LC. […] Then drugs were administered for 30 min and the pumping rate was scored.
Feeding experiments in which nematodes were fed H7-BJ for 1.5 h to generate pharangeal dysfunction, subsequently 20 μM TETRA, 0.5 nM 1033, 2 nM 1033, 20 μM TETRA and 0.5 nM 1033.

Stability of the drug = type: physicochemical

IC50 (C. elegans [1]; Caenorhabditis elegans, read-out: IC50 value of TETRA (pharyngeal dysfunction)) | Compound | ROS generation and pumping dysfunction caused by cardiotoxic LC (C. elegans [1]) | effect on the pharyngeal pumping dysfunction caused by cardiotoxic LC (C. elegans [1]; 100 μg/mL H7-BJ with 50 μM TETRA or 5 mM NAC, pumping 20 h after plating) | activation (nuclear translocation) of DAF-16 induced by the cardiotoxic LC (DAF-16) | H2O2 (ROS) production by H7-BJ (H7-BJ cardiotoxic LC) | pharyngeal impairment caused by all cardiotoxic LC under investigation (C. elegans [1]; 2 nM 1033) | pumping rate, 1033 alone (C. elegans [1]; 1033 alone, no LC) | pharyngeal toxicity induced by exposure to exogenous H2O2 (C. elegans [1]; H2O2 + 1033) | cardiotoxic LC-induced elevation of copper levels in worms (C. elegans [2]) | median survival (C. elegans N2 worms; H7-BJ + 2 nM/day 1033 (repeated administration), vehicle 13 days) | protective effect on survival, single dose (C. elegans N2 worms; single dose of 1033 at 2 nM, H7-BJ-fed worms) | LC-induced HSP-16.2 protein expression in the pharynx (HSP-16.2) | LC-induced SOD-3 protein expression in the pharynx (SOD-3) | maximal recovery of pharangeal function (C. elegans [3]; then 2 nM 1033) | restoring pharangeal function after damage by H7-BJ (C. elegans [3]; then 20 μM TETRA or 0.5 nM 1033 alone) | restoring pharyngeal function after damage by H7-BJ (C. elegans [3]; then drug 30 min, 2 nM 1033 or 20 μM TETRA) | stability under physiological conditions and in a variety of standard solvents (Stability of the drug)
20 µM | CN(C)[C@@H]1C(O)=C(C(N)=O)C(=O)[C@@]2(O)C(O)=C3C(=O)c4c(O)cccc4[C@@](C)(O)[C@H]3C[C@@H]12 [TETRA, tetracycline, reference compound] |  |  |  |  |  |  |  |  |  |  |  |  |  |  |  | 
 | CC(=O)N[C@@H](CS)C(=O)O [NAC, N-acetyl cysteine, reference compound] | capable of neutralizing | protective effect | not observed |  |  |  |  |  |  |  |  |  |  |  |  | 
 | CN(C)Cc1ccc2c(Cl)cc(Cl)c(O)c2n1 [compound 1033, 5,7-dichloro-8-hydroxy-2-(dimethylaminomethyl)quinoline] | capable of neutralizing |  | counteracted | significantly attenuated; also recorded: did prevent the increase | completely abolished | did not affect | did not counteract | counteracted | 13 days | No protective effect | significantly reduced | significantly reduced | 53% | no effect | restoring normal pharyngeal function | extremely stable
